Assay results from US8642508B2, “Complex for use in stabilizing herbicidal compositions and methods for synthesizing and using” (Bayer Cropscience LP, priority 2005, dated 2014).
One block for each molecule: values may come before it.

Experiments:
Format in all cases: physicochemical
[1] = Long-term storage stability 1 year room temperature, Example 7 emulsifiable concentrate (triethanolamine + DBSCa); details: Example 7 formulation; 1 year @ room temp
Method: In this example, an emulsifiable concentrate of fenoxaprop p-ethyl, mefenpyr diethyl, pyrasulfotole and bromoxynil mixed esters was prepared. Triethanolamine, a buffer that is capable of hydrogen bonding, was selected as the buffer. Dodecylbenzenesulfontate calcium, also known as DBSCa was also used to provide a calcium cation for the complex. The mixture of Table 13 was prepared by mixing the liquid ingredients, then the solid ingredients at 50° C.
The mixture was tested for long-term storage stability by subjecting separate samples to room temperatures for 1 year.

[2] = Long-term storage stability, Comparative Example 5 emulsifiable concentrate with bromoxynil mixed esters (triethylamine buffer); details: Comparative Example 5 formulation
Method: An emulsifiable concentrate of fenoxaprop p-ethyl, mefenpyr diethyl, pyrasulfotole and bromoxynil mixed esters was prepared. Triethylamine, a buffer that is not capable of complexing was selected as the buffer. The mixture of Table 9 was prepared by mixing the liquid ingredients, then the solid ingredients at 50° C.
(§1) The mixture was tested for long-term storage stability by subjecting separate samples to different temperatures for eight weeks.

[3] = Long-term storage stability, Comparative Example 1 emulsifiable concentrate (triethanolamine buffer); details: Comparative Example 1 formulation
Method: An emulsifiable concentrate of fenoxaprop-ethyl, mefenpyr diethyl, and pyrasulfotole and fillers was prepared. Triethanolamine, a buffer capable of hydrogen bonding, was selected as the buffer. The mixture of Table 1 was prepared by mixing the liquid ingredients, then the solid ingredients at 50° C.
as §1

[4] = Long-term storage stability, Comparative Example 2 mixture (no buffer); details: Comparative Example 2 formulation
Method: A mixture of fenoxaprop p-ethyl, mefenpyr diethyl, pyrasulfotole, and fillers was prepared in similar manner as in Table 1 but without a buffer system of the invention (see Table 3).
as §1

[5] = Long-term storage stability, Comparative Example 3 emulsifiable concentrate (triethylamine buffer); details: Comparative Example 3 formulation
Method: An emulsifiable concentrate of fenoxaprop p-ethyl, mefenpyr diethyl, and pyrasulfotole was prepared. Triethylamine, a buffer that is not capable of complexing or forming a coordination complex or hydrogen bonding, was selected as the buffer. The mixture of Table 5 was prepared by mixing the liquid ingredients, then the solid ingredients at 50° C.
as §1

[6] = Long-term storage stability, Example 4 emulsifiable concentrate with bromoxynil mixed esters (triethanolamine buffer); details: Example 4 formulation
Method: Triethanolamine, a buffer capable of complexing was selected as the buffer. The mixture of Table 7 was prepared by mixing the liquid ingredients, then the solid ingredients at 50° C.
as §1

[7] = Long-term storage stability, Comparative Example 6 mixture with bromoxynil mixed esters (no buffer); details: Comparative Example 6 formulation
Method: as §1

[8] = Long-term storage stability, Example 8 mixture (triethanolamine, without DBSCa); details: Example 8 formulation
Method: as §1

[9] = 8 weeks @ 40° C., listed as pyrasulfotole

Structure (SMILES): CCCCCCC(=O)Oc1c(Br)cc(C#N)cc1Br [Bromoxynil Heptanoate Esters, bromoxynil heptanoate]
Avg. Wt % active ingredient [1]: 12.47 Wt % | Change from expected [1]: −3.03%

Avg. Wt % active ingredient ([2]; 8 weeks @ 0° C.): 5.67 Wt % | Avg. Wt % active ingredient ([2]; 8 weeks @ 40° C.): 5.02 Wt % | change from 0° C. ([2]; 8 weeks @ 40° C.): −11.52% | Avg. Wt % active ingredient ([2]; 8 weeks @ room temp.): 5.65 Wt % | change from 0° C. ([2]; 8 weeks @ room temp.): −0.41% | Avg. Wt % active ingredient [1]: 13.08 Wt % | Change from expected [1]: −3.083%
Structure (SMILES): CCCCCCCC(=O)Oc1c(Br)cc(C#N)cc1Br [Bromoxynil Octanoate, bromoxynil octanoate]

Structure (SMILES): CCOC(=O)[C@@H](C)Oc1ccc(Oc2nc3ccc(Cl)cc3o2)cc1 [Fenoxaprop p-ethyl, fenoxaprop p-ethyl]
Avg. Wt % active ingredient ([3]; 8 weeks @ 0° C.): 9.41 Wt % | Avg. Wt % active ingredient ([3]; 8 weeks @ 40° C.): 9.00 Wt % | change from 0° C. ([3]; 8 weeks @ 40° C.): −4.31% | Avg. Wt % active ingredient ([3]; 8 weeks @ 50° C.): 8.58 Wt % | change from 0° C. ([3]; 8 weeks @ 50° C.): −8.83% | Avg. Wt % active ingredient ([3]; 8 weeks @ room temp.): 9.34 Wt % | change from 0° C. ([3]; 8 weeks @ room temp.): −0.69% | Avg. Wt % active ingredient ([4]; 8 weeks @ 0° C.): 8.20 Wt % | Avg. Wt % active ingredient ([4]; 8 weeks @ 40° C.): 2.64 Wt % | change from 0° C. ([4]; 8 weeks @ 40° C.): −67.80% | Avg. Wt % active ingredient ([4]; 8 weeks @ 50° C.): 0.91 Wt % | change from 0° C. ([4]; 8 weeks @ 50° C.): −88.90% | Avg. Wt % active ingredient ([4]; 8 weeks @ room temp.): 6.49 Wt % | change from 0° C. ([4]; 8 weeks @ room temp.): −20.85% | Avg. Wt % active ingredient ([5]; 8 weeks @ 0° C.): 2.93 Wt % | Avg. Wt % active ingredient ([5]; 8 weeks @ 40° C.): 2.80 Wt % | change from 0° C. ([5]; 8 weeks @ 40° C.): −4.37% | Avg. Wt % active ingredient ([5]; 8 weeks @ 50° C.): 2.74 Wt % | change from 0° C. ([5]; 8 weeks @ 50° C.): −6.39% | Avg. Wt % active ingredient ([5]; 8 weeks @ room temp.): 2.89 Wt % | change from 0° C. ([5]; 8 weeks @ room temp.): −1.19% | Avg. Wt % active ingredient ([6]; 8 weeks @ 0° C.): 4.32 Wt % | Avg. Wt % active ingredient ([6]; 8 weeks @ 40° C.): 3.96 Wt % | change from 0° C. ([6]; 8 weeks @ 40° C.): −8.25% | Avg. Wt % active ingredient ([2]; 8 weeks @ 0° C.): 4.30 Wt % | Avg. Wt % active ingredient ([2]; 8 weeks @ 40° C.): 4.33 Wt % | change from 0° C. ([2]; 8 weeks @ 40° C.): 0.68% | Avg. Wt % active ingredient ([2]; 8 weeks @ room temp.): 4.33 Wt % | change from 0° C. ([2]; 8 weeks @ room temp.): 0.07% | Avg. Wt % active ingredient ([7]; 8 weeks @ 0° C.): 6.97 Wt % | Avg. Wt % active ingredient ([7]; 8 weeks @ 40° C.): 2.34 Wt % | change from 0° C. ([7]; 8 weeks @ 40° C.): −66.43% | Avg. Wt % active ingredient ([7]; 8 weeks @ room temp.): 6.15 Wt % | change from 0° C. ([7]; 8 weeks @ room temp.): −11.76% | Avg. Wt % active ingredient [1]: 7.95 Wt % | Change from expected [1]: −0.625% | Avg. Wt % active ingredient ([8]; 8 weeks @ 0° C.): 4.33 Wt % | Avg. Wt % active ingredient ([8]; 8 weeks @ 40° C.): 4.00 Wt % | change from 0° C. ([8]; 8 weeks @ 40° C.): −5.75%

Structure (SMILES): CCOC(=O)C1=NN(c2ccc(Cl)cc2Cl)C(C)(C(=O)OCC)C1 (stereo not drawn) [Mefenpyr diethyl, mefenpyr diethyl]
Avg. Wt % active ingredient ([3]; 8 weeks @ 0° C.): 3.77 Wt % | Avg. Wt % active ingredient ([3]; 8 weeks @ 40° C.): 3.74 Wt % | change from 0° C. ([3]; 8 weeks @ 40° C.): −0.65% | Avg. Wt % active ingredient ([3]; 8 weeks @ 50° C.): 3.72 Wt % | change from 0° C. ([3]; 8 weeks @ 50° C.): −1.17% | Avg. Wt % active ingredient ([3]; 8 weeks @ room temp.): 3.76 Wt % | change from 0° C. ([3]; 8 weeks @ room temp.): −0.17% | Avg. Wt % active ingredient ([4]; 8 weeks @ 0° C.): 3.81 Wt % | Avg. Wt % active ingredient ([4]; 8 weeks @ 40° C.): 3.85 Wt % | change from 0° C. ([4]; 8 weeks @ 40° C.): −1.05% | Avg. Wt % active ingredient ([4]; 8 weeks @ 50° C.): 3.97 Wt % | change from 0° C. ([4]; 8 weeks @ 50° C.): −4.20% | Avg. Wt % active ingredient ([4]; 8 weeks @ room temp.): 4.01 Wt % | change from 0° C. ([4]; 8 weeks @ room temp.): +5.24% | Avg. Wt % active ingredient ([5]; 8 weeks @ 0° C.): 3.80 Wt % | Avg. Wt % active ingredient ([5]; 8 weeks @ 40° C.): 3.72 Wt % | change from 0° C. ([5]; 8 weeks @ 40° C.): −2.10% | Avg. Wt % active ingredient ([5]; 8 weeks @ 50° C.): 3.73 Wt % | change from 0° C. ([5]; 8 weeks @ 50° C.): −1.93% | Avg. Wt % active ingredient ([5]; 8 weeks @ room temp.): 3.77 Wt % | change from 0° C. ([5]; 8 weeks @ room temp.): −0.87% | Avg. Wt % active ingredient ([6]; 8 weeks @ 0° C.): 1.82 Wt % | Avg. Wt % active ingredient ([6]; 8 weeks @ 40° C.): 1.80 Wt % | change from 0° C. ([6]; 8 weeks @ 40° C.): −0.92% | Avg. Wt % active ingredient ([2]; 8 weeks @ 0° C.): 1.73 Wt % | Avg. Wt % active ingredient ([2]; 8 weeks @ 40° C.): 1.75 Wt % | change from 0° C. ([2]; 8 weeks @ 40° C.): 0.88% | Avg. Wt % active ingredient ([2]; 8 weeks @ room temp.): 1.75 Wt % | change from 0° C. ([2]; 8 weeks @ room temp.): 0.77% | Avg. Wt % active ingredient ([7]; 8 weeks @ 0° C.): 2.98 Wt % | Avg. Wt % active ingredient ([7]; 8 weeks @ 40° C.): 3.01 Wt % | change from 0° C. ([7]; 8 weeks @ 40° C.): 1.01% | Avg. Wt % active ingredient ([7]; 8 weeks @ room temp.): 3.00 Wt % | change from 0° C. ([7]; 8 weeks @ room temp.): 0.67% | Avg. Wt % active ingredient ([8]; 8 weeks @ 0° C.): 1.74 Wt % | Avg. Wt % active ingredient ([8]; 8 weeks @ 40° C.): 1.72 Wt % | change from 0° C. ([8]; 8 weeks @ 40° C.): −1.29%

Structure (SMILES): Cc1nn(C)c(O)c1C(=O)c1ccc(C(F)(F)F)cc1S(C)(=O)=O [Pyrasulfotole, pyrasulfotole]
Avg. Wt % active ingredient ([3]; 8 weeks @ 0° C.): 5.57 Wt % | Avg. Wt % active ingredient ([3]; 8 weeks @ 40° C.): 5.53 Wt % | change from 0° C. ([3]; 8 weeks @ 40° C.): −0.82% | Avg. Wt % active ingredient ([3]; 8 weeks @ 50° C.): 5.51 Wt % | change from 0° C. ([3]; 8 weeks @ 50° C.): −1.12% | Avg. Wt % active ingredient ([3]; 8 weeks @ room temp.): 5.67 Wt % | change from 0° C. ([3]; 8 weeks @ room temp.): 1.71% | Avg. Wt % active ingredient ([4]; 8 weeks @ 0° C.): 4.76 Wt % | Avg. Wt % active ingredient ([4]; 8 weeks @ 40° C.): 4.69 Wt % | change from 0° C. ([4]; 8 weeks @ 40° C.): −1.47% | Avg. Wt % active ingredient ([4]; 8 weeks @ 50° C.): 4.54 Wt % | change from 0° C. ([4]; 8 weeks @ 50° C.): −4.62% | Avg. Wt % active ingredient ([4]; 8 weeks @ room temp.): 4.75 Wt % | change from 0° C. ([4]; 8 weeks @ room temp.): −0.21% | Avg. Wt % active ingredient ([5]; 8 weeks @ 0° C.): 5.38 Wt % | Avg. Wt % active ingredient ([5]; 8 weeks @ 40° C.): 5.43 Wt % | change from 0° C. ([5]; 8 weeks @ 40° C.): 0.85% | Avg. Wt % active ingredient ([5]; 8 weeks @ 50° C.): 5.60 Wt % | change from 0° C. ([5]; 8 weeks @ 50° C.): 4.07% | Avg. Wt % active ingredient ([5]; 8 weeks @ room temp.): 5.46 Wt % | change from 0° C. ([5]; 8 weeks @ room temp.): 1.51% | Avg. Wt % active ingredient ([6]; 8 weeks @ 0° C.): 1.42 Wt % | Avg. Wt % active ingredient ([6]; 8 weeks @ 40° C.): 1.40 Wt % | change from 0° C. ([6]; 8 weeks @ 40° C.): −1.30% | change from 0° C. [6, 9]: −1.30% | Avg. Wt % active ingredient ([2]; 8 weeks @ 0° C.): 1.38 Wt % | Avg. Wt % active ingredient ([2]; 8 weeks @ 40° C.): 1.26 Wt % | change from 0° C. ([2]; 8 weeks @ 40° C.): −9.04% | change from 0° C. [2, 9]: −9.04% | Avg. Wt % active ingredient ([2]; 8 weeks @ room temp.): 1.30 Wt % | change from 0° C. ([2]; 8 weeks @ room temp.): −5.80% | Avg. Wt % active ingredient ([7]; 8 weeks @ 0° C.): 3.26 Wt % | Avg. Wt % active ingredient ([7]; 8 weeks @ 40° C.): 2.81 Wt % | change from 0° C. ([7]; 8 weeks @ 40° C.): −13.8% | Avg. Wt % active ingredient ([7]; 8 weeks @ room temp.): 3.01 Wt % | change from 0° C. ([7]; 8 weeks @ room temp.): −7.67% | Avg. Wt % active ingredient [1]: 3.14 Wt % | Change from expected [1]: −3.083% | Avg. Wt % active ingredient ([8]; 8 weeks @ 0° C.): 1.74 Wt % | Avg. Wt % active ingredient ([8]; 8 weeks @ 40° C.): 1.65 Wt % | change from 0° C. ([8]; 8 weeks @ 40° C.): −4.81%
